Reference: patent publication US11458118B2, “Methods and pharmaceutical compositions for the treatment of diseases associated with reduced CFTR function” (INSERM (INSTITUT NATIONAL DE LA SANTÉ ET DE LA RECHERCHE …, priority 2017, dated 2022)
Entries after “also recorded” stand apart in the source; their conditions may differ.

Tests used:
F508del-CFTR [1] = assay: Cell surface detection of CFTR in BHK cells expressing HA-tagged F508del-CFTR; assay type: cell-based, hamster; conditions: for presence of F508del-CFTR within membranes: after treatment of cells expressing F508del-CFTR
Protocol: BHK cells stably expressing WT-CFTR or F508del-CFTR were graciously given by Dr. John W. Hanrahan (McGill University). A 3-Haemaglutinin (HA)-epitope tag was inserted in the fourth extracellular loop of CFTR in these cell lines. Cells were cultured in Dulbecco's modified Eagle medium (Lonza, Switzerland) supplemented with 10% fetal bovine serum. Cells were washed three times with cold 1×PBS (Eurobio, France) plus bovine serum albumine (BSA, 0.5%) and incubated 1 h at 4° C. with an anti-HA antibody (BioLegend, USA) diluted (1/250) in 1×PBS plus 0.5% BSA. Cells were washed three times with cold 1×PBS, scraped and centrifugated (300×g, 3 min, 4° C.). Cells pellets were suspended in RIPA buffer for 30 min on ice, centrifuged (16000×g, 15 min, 4° C.) and total protein concentration of supernatant was determined using Lowry's method, using BSA as a standard. Protein G magnetic beads (Thermo Fisher Scientific, USA) were equilibrated with cold RIPA buffer. Lysates were then incubated with the magnetic beads (100 μl of magnetic beads per mg of total protein) at 4° C. during for 2 h. Beads were then rinsed three times in cold RIPA buffer and proteins were eluted with 2× sample buffer containing 2-mercaptoethanol (20 min, 37° C.). […] Membrane was blocked with 5% (w/v) dried skimmed milk in PBS (0.1%) with Tween20, probed overnight at 4° C. with the anti-HA antibody (1/500) in 5% non-fat dried milk in PBST. Membranes were further washed and incubated 1 h at RT with HRP conjugated anti-mouse antibody (1/20000; Santa Cruz Biotechnology, USA). Blots were developed by enhanced chemiluminescence kit (ECL Plus, GE Healthcare, USA) and analyzed using Chemi-Smart 5100 ECL imaging system (Vilber Lourmat, Germany).

[2] = system: cells expressing F508del-CFTR; assay: 2-DE and mass spectrometry of differentially expressed proteins after treatment; assay type: cell-based, human; conditions: AEBSF treated vs untreated cell lysates, above 2 fold, MS identification
Protocol: 100 μg of total proteins from untreated or AEBSF treated cells were used for experiments. Each protein sample was first diluted in DeStreak Rehydration Solution (GE Healthcare, Chalfont St Giles, UK) which contains optimized concentrations of urea, thiourea, CHAPS, DeStreak Reagent and appropriate IPG buffer. Passive rehydration of Immobiline DryStrip gels (7 cm, pH 3-10 NL, GE Healthcare) with samples was performed during 8 hours. Once rehydration completed, Immobiline DryStrip gel are transferred in the Manifold on Ettan IPGphor 3 (GE Healthcare) for first dimension isoelectric focusing (IEF). IEF protocol used is divided in five steps: 1—Step 300 V, 200 Vhr; 2—Grad 1000 V, 300 Vhr; 3—Grad 5000 V, 4500 Vhr; 4—Step 5000V, 9000 Vhr; 5—Step 300V, 12-15 h. Second-dimension separation is performed immediately after IEF is completed. Immobiline DryStrip gels are equilibrated (15 min at room temperature) in two SDS equilibration buffers (6 M urea, 75 mM Tris-HCl pH=8.8, 30% Glycerol, 2% SDS, 0.0002% bromophenol blue+DTT or iodoacetamide) before SDS-PAGE. Electrophoresis was performed with lab-cast gels (1 mm, Bis-Tris 10%) in 1× Tris-Glycine-SDS buffer (BioRad, Hercules, Calif., USA) at 120 V for 2 h 30. […] Gel alignment, spot detection and quantification were done using the PDQuest software (PDQuest Basic-8.0.1, BioRad). […]

S1P = S1P expression by western blot in cells expressing F508del-CFTR; assay type: cell-based, human; conditions: 300 μM AEBSF, total cell lysates
Protocol: (§1) The CFBE41o−cells purchased from Professor D. C.
(§2) Untreated or AEBSF treated cells were rinsed twice with cold PBS. For total cell lysate preparation, cells were lysed in RIPA buffer (25 mM Tris-HCl pH 7.5, 150 mM NaCl, 1% Triton X-100, 1% Na-Deoxycholate, 0.1% SDS, 10 mM iodoacetamide, 100 μM PMSF) supplemented with fresh protease-inhibitor cocktail (Complete tablets—EDTA free, Roche, Basel, Switzerland) added extemporaneously at a final concentration of 40 μl/ml (30 min on ice). Lysates were centrifugated (15 min, 16000 g, 4° C.). For nuclear preparation, cells were washed twice with cold PBS, and lysed with buffer A (10 mM HEPES pH 7.9, 1.5 mM MgCl2, 10 mM KCl, 2 mM EDTA, 0.5 mM DTT, 0.20% NP40 and protease-inhibitor cocktail) during 15 min at 4° C. Lysates were then centrifuged (1,500×g, 2 min, 4° C.) and the supernatants (cytosolic fraction) were removed in a new tube. […] Protein concentrations were determined using Lowry's methodology with the bovine serum albumin used as a standard.
(§3) For each sample equal amount of total or nuclear proteins was loaded on a polyacrylamide gel and resolved by SDS-PAGE (10%). […] Blots were developed by enhanced chemiluminescence kit (ECL Plus, GE Healthcare) and analyzed using Chemi-Smart 5100 ECL imaging system (Vilber Lourmat). The relative intensity of each band was quantified by densitometry using BIO-1D software (Vilber Lourmat). […]

BiP = BiP expression by western blot in cells expressing F508del-CFTR (UPR reporter); assay type: cell-based, human; conditions: 300 μM AEBSF, total cell lysates
Protocol: as §1, §2, §3

[3] = system: cells expressing Wt-CFTR and F508del-CFTR; assay: Cell toxicity observed in treated cells; conditions: in the used concentration (300 μM AEBSF; 10 μM PF-429242)
Protocol: The CFBE41o−cells purchased from Professor D. C. Gruenert (San Francisco, Calif., U.S.A.) were human bronchial epithelial cells endogenously expressing the F508del-CFTR obtained from a CF patient homozygous for the F508del mutation [51;52]. The cells used in experiments were the transduced CFBE41o−/WT also called CFBE41o−/corrected (CFBE41o−/corr) and CFBE41o−/F508del cells, and were cultured as previously described. These cells will be also called cells expressing Wt-CFTR and cells expressing F508del-CFTR in the manuscript. Cell culture media and supplements were purchased from Lonza (Basel, Switzerland) and CliniSciences (Nanterre, France). To inhibit ATF6 activation, cells were incubated with 300 μM of the serine protease inhibitor 4-(2-Aminoethyl) benzenesulfonyl fluoride hydrochloride (AEBSF) purchased from Servilab. In some experiments, ATF6 activation was blocked by the use of 10 μM PF-429242 (4-[(Diethylamino)methyl]-N-[2-(2-methoxyphenyl)ethyl]-N-(3R)-3-pyrrolidinylbenzamide, from Tocris).

F508del-CFTR [4] = assay: Whole-cell patch-clamp of CFTR Cl- channel activity in CFBE41o-/F508del cells; assay type: cell-based, human; conditions: for increase of Cl- currents in treated vs untreated F508del-CFTR cells: pA/pF values at +80 mV
Protocol: as §1
Whole-cell patch-clamp recordings were obtained with the patch clamp system Port-a-Patch® (Nanion Technologies GmbH, Germany) as previously described [74;75]. Untreated or AEBSF treated cells were incubated with the external solution (140 mM NaCl, 2 mM CaCl2, 1 mM MgCl2, 10 mM Hepes, 5 mM D-glucose monohydrate, pH 7.4, 298 mOsmol) before recording. The internal solution used was 50 mM CsCl, 10 mM NaCl, 60 mM Cs-Fluoride, 20 mM EGTA, 10 mM Hepes/CsOH, and 5 mM Mg-ATP (Mg salt); pH 7.2; 285 mOsmol. CFTR activation and CFTR inhibition was done using the CFTR-activator ([…] and […] both from Sigma) and the CFTR-inhibitor ([…], Sigma) solution respectively, that were added to the external solution. Voltage steps (100 ms) from a holding potential of −80 mV, from −80 mV to +80 mV (10 mV increments) were applied. Data were captured using the Patchmaster program (Nanion Technologies GmbH, Germany) and currents normalized by membrane capacitances to remove variability due to differences in the cell sizes. Results were presented as graphic representations of I/V relationship and as bar graphs after statistical analysis of the normalized values, at +80 mV.

ATF6 = ATF6 expression and activation by western blot (total lysates, nuclear fractions) in cells expressing F508del-CFTR; assay type: cell-based, human; conditions: 300 μM AEBSF
Protocol: as §1
Untreated or AEBSF treated cells were rinsed twice with cold PBS. For total cell lysate preparation, cells were lysed in RIPA buffer (25 mM Tris-HCl pH 7.5, 150 mM NaCl, 1% Triton X-100, 1% Na-Deoxycholate, 0.1% SDS, 10 mM iodoacetamide, 100 μM PMSF) supplemented with fresh protease-inhibitor cocktail (Complete tablets—EDTA free, Roche, Basel, Switzerland) added extemporaneously at a final concentration of 40 μl/ml (30 min on ice). Lysates were centrifugated (15 min, 16000 g, 4° C.). For nuclear preparation, cells were washed twice with cold PBS, and lysed with buffer A (10 mM HEPES pH 7.9, 1.5 mM MgCl2, 10 mM KCl, 2 mM EDTA, 0.5 mM DTT, 0.20% NP40 and protease-inhibitor cocktail) during 15 min at 4° C. Lysates were then centrifuged (1,500×g, 2 min, 4° C.) and the supernatants (cytosolic fraction) were removed in a new tube. The pellet was washed twice in buffer B (Buffer A without NP40) and lysed with buffer C (20 mM HEPES pH 7.9, 1.5 mM MgCl2, 450 mM KCl, 2 mM EDTA, 2 mM EGTA, 0.5 mM DTT, 25% Glycerol and protease-inhibitor cocktail) during 1 h vortexing 2200 rpm. Lysates were then centrifuged (14,000×g, 10 min, 4° C.) and supernatant (nuclear fraction) was removed in a new tube. Protein concentrations were determined using Lowry's methodology with the bovine serum albumin used as a standard.
For each sample equal amount of total or nuclear proteins was loaded on a polyacrylamide gel and resolved by SDS-PAGE (10%). Samples were then transferred onto a PVDF membrane (EMD Millipore, Billerica, Mass., United States). After blotting, membranes were blocked with 5% (w/v) non-fat dried skimmed milk in PBS-0.1% Tween20 (PBST). Blots were then probed overnight at 4° C. with the primary antibodies listed hereafter: Rabbit polyclonal anti-ATF6 antibody (#09-069, EMD Millipore), Rabbit polyclonal anti-S1P antibody (H-300) (#SC-20757, SantaCruz Biotechnology), Rabbit polyclonal anti-GRP78 antibody (H-129) (#SC-13968, SantaCruz Biotechnology). Membranes were further incubated 1 h at room temperature with the appropriate horseradish peroxidase (HRP) conjugated secondary antibody diluted in PBST (1/20,000): Goat anti-rabbit (#A0545, Servilab). Blots were developed by enhanced chemiluminescence kit (ECL Plus, GE Healthcare) and analyzed using Chemi-Smart 5100 ECL imaging system (Vilber Lourmat). The relative intensity of each band was quantified by densitometry using BIO-1D software (Vilber Lourmat). Each value was normalized by blue coomassie staining or the G3PDH signal obtained in the same lane on the same blot probed with mouse monoclonal antibody anti-G3PDH (#H86504M, Meridian Life Science®, Inc.) diluted in PBST (1/30,000).

[5] = system: S1P-mediated cleavage of ATF6; conditions: from references [69], [78]; cited from earlier work

For `Cl.NCCc1ccc(S(=O)(=O)F)cc1` [AEBSF, 4-(2-Aminoethyl) benzenesulfonyl fluoride hydrochloride], the “mature form of CFTR (C band, 170 kDa) at the cell surface” value (F508del-CFTR [1]; BHK cells expressing HA-tagged F508del-CFTR, anti-HA pull-down and immunoblot) was “only observed after AEBSF treatment”, the “presence of F508del-CFTR within membranes” value (F508del-CFTR [1]) was “increase the presence of F508del-CFTR within membranes” and the “differentially expressed proteins after treatment” value [2] was “HNRNPH1 and HNRH3 were decreased and that PDIA3 (Grp58), HSP7C, GRP75 and HSP71 were increased”. The “S1P expression over time in treated cells” value (S1P; 0.5, 1, 2, 4 or 8 hours, CFBE41o-/F508del cells, hydrochloride) was “significance was only observed at the 2 hours time point; also recorded: no significant variation was observed over time except for the 2 hours time point”, the “S1P expression, treated vs untreated cells for each time point” value (S1P; F508del-CFTR cells) was “no significant difference” and the “BiP expression, treated vs untreated cells for each time point” value (BiP) was “Significant decreases at the 4 and 8 hours time points”. For the same molecule, the “BiP expression over time in treated cells” value (BiP; over time) was “significant decrease of BiP expression was observed after 4 hours of treatment”, the cell toxicity [3] was “No obvious cell toxicity was observed” and the “increase of Cl- currents in treated vs untreated F508del-CFTR cells” value (F508del-CFTR [4]; 300 μM AEBSF, 8 hours) was “+153%”. For the same molecule, the “fold increase of the F508del-CFTR's Cl- function” value (F508del-CFTR [4]; 300 μM AEBSF, 8 hours, vs untreated cells) was 2.5 fold, the “mean cell Cl- currents” value (F508del-CFTR [4]; CFBE41o-/F508del cells, 300 μM AEBSF, 8 hours, at +80 mV, untreated 32.98±14.71, Wt-CFTR 118.8±21.09) was 83.42±11.51 pA/pF and the “ATF6 activation (cleaved form in nuclear fraction) compared to the zero time point” value (ATF6; nuclear fractions) was “significant decreases at the 2 and 4 hours treatment”. The “cleaved 50 kDa ATF6 in nuclear fraction, treated vs untreated cells for each time point” value (ATF6; nuclear fractions) was “significant decreased expression of the 50 kDa form of ATF6, from 1 to 8 hours”, the “full length ATF6 expression compared to the zero time point” value (ATF6; total cell lysates) was “significant increased expression was observed after 4 and 8 hours of treatment” and the “full length ATF6 expression, treated vs untreated cells for each time point” value (ATF6; total cell lysates) was “significant decreases after 0.5, 1 and to 2 hours and a significant increase after 8 hours”. For the same molecule, the “inhibition of ATF6 cleavage upon ER stress” value [5] was “inhibit the proteolysis of ATF6”.
In the case of `CCN(CC)Cc1ccc(C(=O)N(CCc2ccccc2OC)[C@@H]2CCNC2)cc1` [PF-429242, 4-[(Diethylamino)methyl]-N-[2-(2-methoxyphenyl)ethyl]-N-(3R)-3-pyrrolidinylbenzamide], the “presence of F508del-CFTR within membranes” value (F508del-CFTR [1]) is reported as “increase the presence of F508del-CFTR within membranes”, the “increase of Cl- currents in treated vs untreated F508del-CFTR cells” value (F508del-CFTR [4]; 10 μM PF-429242, 8 hours) is reported as “+152%” and the “mean cell Cl- currents (function of F508del-CFTR)” value (F508del-CFTR [4]; CFBE41o-/F508del cells, 10 μM PF-429242, 8 hours, at +80 mV, untreated 32.98±14.71) is reported as 82.67±22.26 pA/pF. For the same molecule, the “inhibition of ATF6 cleavage upon ER stress” value [5] was “efficiently blocks the S1P-mediated cleavage of ATF6 upon ER stress”.
